Assay results: patent US10160785B2, “Antimicrobial peptides and their use for the treatment of topical infections” (priority 2015, dated 2018)

What was measured:
[1] = tested on: Bacillus subtilis; settings: Bacillus subtilis; 37° C., 20 h
Procedure: (§1) Gram-positive bacteria (Micrococcus luteus, Bacillus subtilis, Staphylococcus aureus, Staphylococcus epidermidis and Enterococcus faecalis), Gram-negative bacteria (Escherichia coli and Pseudomonas aeruginosa) and the yeast (Candida albicans) were grown to exponential phase and then were diluted with fresh medium. BHI medium (Oxoid, Great Britain) was used for Enterococcus faecalis; YPD medium containing yeast extract peptone and glucose was used for Candida albicans and LB medium (Sigma, Czech Republic) was used for the remaining microorganisms. Then the microorganisms were added to the solutions of the tested antimicrobial peptides in LB medium in multi-well plates. The final peptide concentration it the wells was in the range of 0.1 to 100 μmol.l^−1. That was made by twofold serial dilution from the peptide stock solution (1 mmol.l^−1). The plates were incubated at 37° C. for 20 h while being continuously shaken in a Bioscreen C (Oy Growth Curves AB Ltd., Helsinki, Finland). Absorbance was measured at 540 nm every 15 min. Antimicrobial activity (Table 2) was determined as a quantitative minimum inhibitory concentration (MIC) by observing bacterial growth in the presence of different concentrations of tested peptides. In the experiments ca 10^5 CFU of bacteria or candida per well were routinely used.
(§2) Multiresistant clinical isolates of bacteria were obtained from University Hospital in Motol, Prague, Czech Republic and from Liberec Regional Hospital, Czech Republic. Methicillin resistant Staphylococcus aureus (MRSA) 6271 and Pseudomonas aeruginosa 5482 were from the Czech National Collection of Type Cultures, the National Institute of Public Health, Prague, Czech Republic. Other bacteria were from the Czech Collection of Microorganisms, Brno, Czech Republic. Candida albicans came from the Faculty of Medicine, Palacky University, Olomouc, Czech Republic.

[2] = tested on: Candida albicans Olomouc; settings: Candida albicans Olomouc; YPD medium; 37° C., 20 h (Example 2)
Procedure: as §1, §2

[3] = tested on: Enterococcus faecalis Motol; settings: BHI medium, 37° C., 20 h
Procedure: as §1, §2

[4] = tested on: Escherichia coli; settings: 37° C., 20 h
Procedure: as §1, §2

[5] = tested on: Methicillin resistant Staphylococcus aureus (MRSA) 6271; settings: 37° C., 20 h
Procedure: as §1, §2

[6] = tested on: Micrococcus luteus; settings: Micrococcus luteus; 37° C., 20 h
Procedure: as §1, §2

[7] = tested on: Pseudomonas aeruginosa 5482; settings: 37° C., 20 h
Procedure: as §1, §2

[8] = tested on: Pseudomonas aeruginosa Liberec; settings: Pseudomonas aeruginosa Liberec; 37° C., 20 h
Procedure: as §1, §2

[9] = tested on: Staphylococcus aureus Liberec; settings: Staphylococcus aureus Liberec clinical isolate; 37° C., 20 h
Procedure: as §1, §2

[10] = tested on: Staphylococcus aureus Motol; settings: Staphylococcus aureus Motol clinical isolate; 37° C., 20 h
Procedure: as §1, §2

[11] = tested on: Staphylococcus epidermidis Motol; settings: 37° C., 20 h
Procedure: as §1, §2

[12] = in vitro; settings: human
Method in brief: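 Hemolysis expressed as LC50, the concentration giving 50% erythrocyte lysis. Supernatant A540 was scaled between buffer-only blank and 0.2% Triton X100 total lysis after 1 h, 37 °C exposure of 5% v/v human red cells to 2-200 μmol.l^−1 peptide in physiological solution.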

[13] = tested on: Candida albicans (Olomouc); experiment: microbe, parasite or virus in culture; assay type: cell-based; settings: RPMI broth microdilution, 35° C., 48 hours, visual
Method in brief: (§3)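 RPMI 1640/0.165 M MOPS microdilution; peptides 0.625–160 μmol.l^−1 as pipetted; final 5×10^2–2.5×10^3 CFU/ml; 35 °C, static, 48 h; visual MIC = no-growth endpoint.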

[14] = tested on: Candida albicans ATCC MYA-2876; experiment: microbe, parasite or virus in culture; assay type: cell-based; settings: RPMI broth microdilution, 35° C., 48 hours, visual
Method in brief: as §3

[15] = tested on: Candida dubliniensis ATCC MYA-646; experiment: microbe, parasite or virus in culture; assay type: cell-based; settings: RPMI broth microdilution, 35° C., 48 hours, visual
Method in brief: as §3

[16] = tested on: Candida glabrata ATCC 2001; experiment: microbe, parasite or virus in culture; assay type: cell-based; settings: RPMI broth microdilution, 35° C., 48 hours, visual
Method in brief: as §3

[17] = tested on: Candida glabrata DSY 565; experiment: microbe, parasite or virus in culture; assay type: cell-based; settings: RPMI broth microdilution, 35° C., 48 hours, visual
Method in brief: as §3

[18] = tested on: Candida krusei ATCC 6258; experiment: microbe, parasite or virus in culture; assay type: cell-based; settings: RPMI broth microdilution, 35° C., 48 hours, visual
Method in brief: as §3

[19] = tested on: Candida tropicalis ATCC 750; experiment: microbe, parasite or virus in culture; assay type: cell-based; settings: RPMI broth microdilution, 35° C., 48 hours, visual
Method in brief: as §3

[20] = tested on: P. aeruginosa (Liberec); experiment: Synergistic effect of peptides with antibiotics, FIC index; assay type: cell-based, Pseudomonas aeruginosa; settings: FIC <0.5 synergism, 0.5-2 additive, >2 antagonism, averages of three experiments; for FIC indexes (fractional inhibitory concentration) Combination with RIF against P. aeruginosa: peptide combined with rifampicin; for FIC indexes (fractional inhibitory concentration) Combination with TET against P. aeruginosa: peptide combined with tetracycline
Procedure: (§4) MICs values of various combinations of two fold serial dilutions of peptides and antibiotics were determined using the same methodology as in the case of antimicrobial activity determination (Example 2). To consider the type of the final effect, FIC indexes (fractional inhibitory concentration) were used and calculated as follows:
(§5) [formula] where MICPC and MICAC are the MICs of the peptide and antibiotic in combination, respectively, and MICP and MICA are the MICs of the peptide and antibiotic tested alone, respectively. FIC<0.5 were considered as synergy, 0.5≤FIC≤2 as addition effect, and FIC>2 as antagonism.

[21] = tested on: S. aureus (Liberec); experiment: as above; assay type: cell-based, Staphylococcus aureus; settings: peptide combined with amoxicillin; FIC <0.5 synergism, 0.5-2 additive, >2 antagonism; averages of three experiments
Procedure: as §4, §5

H-GILSKLLKKLKKIIAK-NH2 [XI]
Antimicrobial activity MIC B. s. [1]: 1.4 µM
Antimicrobial activity MIC C. a. Olomouc [2]: 45.3 µM
Antimicrobial activity MIC E. f. Motol [3]: 72.7 µM
Antimicrobial activity MIC E. c. [4]: 17.5 µM
Antimicrobial activity MIC S. a. 6271 [5]: 22.7 µM
Antimicrobial activity MIC M. l. [6]: 1.6 µM
Antimicrobial activity MIC P. a. 5482 [7]: 4.5 µM
Antimicrobial activity MIC P. a. Liberec [8]: 8.5 µM
Antimicrobial activity MIC S. a. Liberec [9]: 5.9 µM
Antimicrobial activity MIC S. a. Motol [10]: 10.0 µM
Antimicrobial activity MIC S. e. Motol [11]: 1.8 µM
HC50 at 1 h [12]: > 400 µM
Antifungal activity MIC C. albicans Olomouc [13]: 12.0 µM
Antifungal activity MIC C. albicans ATCC MYA-2876 [14]: 20.0 µM
Antifungal activity MIC C. dubliniensis ATCC MYA-646 [15]: 10.5 µM
Antifungal activity MIC C. glabrata ATCC 2001 [16]: 26.0 µM
Antifungal activity MIC C. glabrata DSY 565 [17]: 40.0 µM
Antifungal activity MIC C. krusei ATCC 6258 [18]: 5.0 µM
Antifungal activity MIC C. tropicalis ATCC 750 [19]: 1.0 µM
FIC indexes (fractional inhibitory concentration) Combination with RIF against P. aeruginosa [20]: 0.344
FIC indexes (fractional inhibitory concentration) Combination with TET against P. aeruginosa [20]: 0.646
FIC indexes (fractional inhibitory concentration) Combination with AMX against S. aureus [21]: 0.333

H-GILKSLLKKLKKIIAK-NH2 [X]
Antimicrobial activity MIC B. s. [1]: 1.5 µM
Antimicrobial activity MIC C. a. Olomouc [2]: 24.0 µM
Antimicrobial activity MIC E. f. Motol [3]: 76.7 µM
Antimicrobial activity MIC E. c. [4]: 10.0 µM
Antimicrobial activity MIC S. a. 6271 [5]: 16.5 µM
Antimicrobial activity MIC M. l. [6]: 1.4 µM
Antimicrobial activity MIC P. a. 5482 [7]: 5.0 µM
Antimicrobial activity MIC P. a. Liberec [8]: 8.9 µM
Antimicrobial activity MIC S. a. Liberec [9]: 4.3 µM
Antimicrobial activity MIC S. a. Motol [10]: 10.0 µM
Antimicrobial activity MIC S. e. Motol [11]: 2.2 µM
HC50 at 1 h [12]: > 400 µM
Antifungal activity MIC C. albicans Olomouc [13]: 10.5 µM
Antifungal activity MIC C. albicans ATCC MYA-2876 [14]: 17.0 µM
Antifungal activity MIC C. dubliniensis ATCC MYA-646 [15]: 14.0 µM
Antifungal activity MIC C. glabrata ATCC 2001 [16]: 34.0 µM
Antifungal activity MIC C. glabrata DSY 565 [17]: 71.1 µM
Antifungal activity MIC C. krusei ATCC 6258 [18]: 5.0 µM
Antifungal activity MIC C. tropicalis ATCC 750 [19]: 1.0 µM
FIC indexes (fractional inhibitory concentration) Combination with RIF against P. aeruginosa [20]: 0.333
FIC indexes (fractional inhibitory concentration) Combination with TET against P. aeruginosa [20]: 0.521
FIC indexes (fractional inhibitory concentration) Combination with AMX against S. aureus [21]: 0.542

H-GIWSSLLKKLKKIIAK-NH2 [XIV]
Antimicrobial activity MIC B. s. [1]: 0.8 µM
Antimicrobial activity MIC C. a. Olomouc [2]: 16.0 µM
Antimicrobial activity MIC E. f. Motol [3]: 46.0 µM
Antimicrobial activity MIC E. c. [4]: 1.6 µM
Antimicrobial activity MIC S. a. 6271 [5]: 20.0 µM
Antimicrobial activity MIC M. l. [6]: 0.8 µM
Antimicrobial activity MIC P. a. 5482 [7]: 6.3 µM
Antimicrobial activity MIC P. a. Liberec [8]: 21.0 µM
Antimicrobial activity MIC S. a. Liberec [9]: 4.6 µM
Antimicrobial activity MIC S. a. Motol [10]: 5.3 µM
Antimicrobial activity MIC S. e. Motol [11]: 1.5 µM
HC50 at 1 h [12]: 165 µM
Antifungal activity MIC C. albicans Olomouc [13]: 8.2 µM
Antifungal activity MIC C. albicans ATCC MYA-2876 [14]: 10.0 µM
Antifungal activity MIC C. dubliniensis ATCC MYA-646 [15]: 9.0 µM
Antifungal activity MIC C. glabrata ATCC 2001 [16]: 19.1 µM
Antifungal activity MIC C. glabrata DSY 565 [17]: 48.0 µM
Antifungal activity MIC C. krusei ATCC 6258 [18]: 5.2 µM
Antifungal activity MIC C. tropicalis ATCC 750 [19]: 1.2 µM
FIC indexes (fractional inhibitory concentration) Combination with RIF against P. aeruginosa [20]: 0.271
FIC indexes (fractional inhibitory concentration) Combination with TET against P. aeruginosa [20]: 0.354
FIC indexes (fractional inhibitory concentration) Combination with AMX against S. aureus [21]: 0.396

H-GIMSSLMKKLKKIIKK-NH2 [VII]
Antimicrobial activity MIC B. s. [1]: 2.5 µM
Antimicrobial activity MIC C. a. Olomouc [2]: 6.3 µM
Antimicrobial activity MIC E. f. Motol [3]: >100 µM
Antimicrobial activity MIC E. c. [4]: 22.0 µM
Antimicrobial activity MIC S. a. 6271 [5]: 54.0 µM
Antimicrobial activity MIC M. l. [6]: 1.9 µM
Antimicrobial activity MIC P. a. 5482 [7]: 7.1 µM
Antimicrobial activity MIC P. a. Liberec [8]: 9.9 µM
Antimicrobial activity MIC S. a. Liberec [9]: 18.0 µM
Antimicrobial activity MIC S. a. Motol [10]: 64.7 µM
Antimicrobial activity MIC S. e. Motol [11]: 1.7 µM
HC50 at 1 h [12]: > 400 µM
Antifungal activity MIC C. albicans Olomouc [13]: 17.0 µM
Antifungal activity MIC C. albicans ATCC MYA-2876 [14]: 22.0 µM
Antifungal activity MIC C. dubliniensis ATCC MYA-646 [15]: 20.0 µM
Antifungal activity MIC C. glabrata ATCC 2001 [16]: 40.0 µM
Antifungal activity MIC C. glabrata DSY 565 [17]: 97.8 µM
Antifungal activity MIC C. krusei ATCC 6258 [18]: 10.0 µM
Antifungal activity MIC C. tropicalis ATCC 750 [19]: 1.1 µM
FIC indexes (fractional inhibitory concentration) Combination with RIF against P. aeruginosa [20]: 0.365
FIC indexes (fractional inhibitory concentration) Combination with TET against P. aeruginosa [20]: 0.625
FIC indexes (fractional inhibitory concentration) Combination with AMX against S. aureus [21]: 0.167
